Reference: ChEMBL document CHEMBL3608247, “Human SIRT3 tripeptidic inhibitors containing N(ε)-thioacetyl-lysine” (Bioorg Med Chem Lett, 2015)
pIC50: −log10 of the molar value.

Assays:
[1] = target: T1, NAD-dependent protein deacetylase sirtuin-1 (Homo sapiens, UniProt Q96EB6); test: Inhibition of human His6 or GST-tagged SIRT1 after 10 mins by HPLC analysis in presence of beta-NAD
T1 sequence (Q96EB6 whole entry): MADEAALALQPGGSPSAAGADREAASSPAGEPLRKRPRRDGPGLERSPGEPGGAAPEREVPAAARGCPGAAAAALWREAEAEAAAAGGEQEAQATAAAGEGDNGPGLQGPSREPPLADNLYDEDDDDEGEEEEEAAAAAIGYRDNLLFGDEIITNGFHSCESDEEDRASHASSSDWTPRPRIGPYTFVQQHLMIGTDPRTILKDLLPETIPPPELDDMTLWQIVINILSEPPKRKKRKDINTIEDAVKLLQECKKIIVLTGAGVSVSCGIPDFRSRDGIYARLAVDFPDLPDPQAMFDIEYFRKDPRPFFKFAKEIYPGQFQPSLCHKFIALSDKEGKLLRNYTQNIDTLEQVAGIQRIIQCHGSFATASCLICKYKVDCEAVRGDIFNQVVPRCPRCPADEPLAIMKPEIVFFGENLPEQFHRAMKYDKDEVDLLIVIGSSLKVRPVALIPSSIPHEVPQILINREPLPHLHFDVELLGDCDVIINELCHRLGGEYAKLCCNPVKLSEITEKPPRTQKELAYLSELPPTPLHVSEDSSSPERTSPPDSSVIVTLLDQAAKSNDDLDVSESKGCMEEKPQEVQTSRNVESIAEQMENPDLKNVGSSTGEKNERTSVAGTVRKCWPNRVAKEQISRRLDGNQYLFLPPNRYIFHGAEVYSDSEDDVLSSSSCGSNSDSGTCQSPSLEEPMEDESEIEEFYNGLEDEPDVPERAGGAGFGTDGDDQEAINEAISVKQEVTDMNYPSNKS

[2] = target: T2, NAD-dependent protein deacetylase sirtuin-3, mitochondrial (Homo sapiens, UniProt Q9NTG7); test: Inhibition of human His6-tagged SIRT3 after 10 mins by HPLC analysis in presence of beta-NAD
T2 sequence (Q9NTG7 whole entry): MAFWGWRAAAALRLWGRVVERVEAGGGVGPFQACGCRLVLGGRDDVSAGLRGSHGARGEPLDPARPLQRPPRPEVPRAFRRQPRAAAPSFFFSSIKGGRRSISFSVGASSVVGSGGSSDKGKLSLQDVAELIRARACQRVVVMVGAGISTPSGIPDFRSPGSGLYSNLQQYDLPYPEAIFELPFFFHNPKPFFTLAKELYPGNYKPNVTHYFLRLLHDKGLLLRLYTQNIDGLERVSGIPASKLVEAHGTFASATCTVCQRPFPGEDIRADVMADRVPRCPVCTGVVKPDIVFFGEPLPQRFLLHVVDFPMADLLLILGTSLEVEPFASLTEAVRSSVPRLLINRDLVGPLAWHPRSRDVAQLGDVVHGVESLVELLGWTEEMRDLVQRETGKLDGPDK

[3] = target: T3, NAD-dependent protein deacetylase sirtuin-2 (Homo sapiens, UniProt Q8IXJ6); test: Inhibition of human His6-tagged SIRT2 after 12 mins by HPLC analysis in presence of beta-NAD
T3 sequence (Q8IXJ6 whole entry): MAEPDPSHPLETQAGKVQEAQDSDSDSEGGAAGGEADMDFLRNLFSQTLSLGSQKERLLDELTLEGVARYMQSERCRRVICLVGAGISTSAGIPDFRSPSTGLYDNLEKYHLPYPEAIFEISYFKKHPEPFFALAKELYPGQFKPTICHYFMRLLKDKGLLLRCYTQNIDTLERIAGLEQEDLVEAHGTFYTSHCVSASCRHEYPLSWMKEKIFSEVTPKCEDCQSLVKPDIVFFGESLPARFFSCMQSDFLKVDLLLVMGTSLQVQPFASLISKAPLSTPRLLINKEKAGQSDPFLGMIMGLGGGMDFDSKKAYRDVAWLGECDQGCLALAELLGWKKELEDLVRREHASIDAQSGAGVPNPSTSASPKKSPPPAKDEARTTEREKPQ

Homo sapiens [4] = organism: Homo sapiens; test: Selectivity ratio of IC50 for human His6 or GST-tagged SIRT1 to IC50 for human His6-tagged SIRT3
Homo sapiens [5] = organism: Homo sapiens; test: Selectivity ratio of IC50 for human His6-tagged SIRT2 to IC50 for human His6-tagged SIRT3
[6] = target: T2, NAD-dependent protein deacetylase sirtuin-3, mitochondrial; test: Inhibition of human His6-tagged SIRT3 after 10 mins by Dixon plot analysis in presence of beta-NAD
[7] = target: T3, NAD-dependent protein deacetylase sirtuin-2; test: Inhibition of human His6-tagged SIRT2 after 12 mins by Dixon plot analysis in presence of beta-NAD
[8] = target: NAD-dependent protein deacylase sirtuin-5, mitochondrial (Homo sapiens, UniProt Q9NXA8); test: Inhibition of human GST-tagged SIRT5 after 5 mins by HPLC analysis in presence of beta-NAD
[9] = target: NAD-dependent protein deacylase sirtuin-6 (Homo sapiens, UniProt Q8N6T7); test: Inhibition of human GST-tagged SIRT6 after 12 mins by HPLC analysis in presence of beta-NAD
[10] = target: T1, NAD-dependent protein deacetylase sirtuin-1; test: Inhibition of human His6 or GST-tagged SIRT1 after 10 mins by Dixon plot analysis in presence of beta-NAD

NAD-dependent protein deacylase sirtuin-5, mitochondrial, sequence (Q9NXA8 whole entry): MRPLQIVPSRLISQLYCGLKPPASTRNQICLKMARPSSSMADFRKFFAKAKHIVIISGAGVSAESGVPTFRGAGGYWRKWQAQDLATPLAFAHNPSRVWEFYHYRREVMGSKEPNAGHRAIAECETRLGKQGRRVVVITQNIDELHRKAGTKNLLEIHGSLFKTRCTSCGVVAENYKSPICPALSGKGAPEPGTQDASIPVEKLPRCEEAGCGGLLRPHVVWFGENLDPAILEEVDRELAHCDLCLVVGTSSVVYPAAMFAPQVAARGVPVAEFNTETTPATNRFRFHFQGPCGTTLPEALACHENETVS
NAD-dependent protein deacylase sirtuin-6, sequence (Q8N6T7 whole entry): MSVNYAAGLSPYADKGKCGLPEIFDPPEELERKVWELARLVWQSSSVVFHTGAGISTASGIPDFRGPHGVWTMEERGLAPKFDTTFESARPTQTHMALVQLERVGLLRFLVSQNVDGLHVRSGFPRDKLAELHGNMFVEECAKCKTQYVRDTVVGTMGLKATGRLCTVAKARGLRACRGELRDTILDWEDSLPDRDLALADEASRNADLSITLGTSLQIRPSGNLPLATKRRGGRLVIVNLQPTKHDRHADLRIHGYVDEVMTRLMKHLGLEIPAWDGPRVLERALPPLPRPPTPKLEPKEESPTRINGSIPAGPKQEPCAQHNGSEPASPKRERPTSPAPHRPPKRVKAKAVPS

| Structure (SMILES) | pIC50 [1] | pIC50 [2] | pIC50 [3] | further results |
| --- | --- | --- | --- | --- |
| CCCC[C@H](NC(=O)[C@H](CCCCNC(C)=S)NC(=O)[C@H](CCCCNC(C)=O)NC(C)=O)C(N)=O | 6.20 |  | 5.29 |  |
| CC(=O)NCCCC[C@H](NC(=O)[C@H](CCCCNC(C)=S)NC(=O)[C@H](CCc1ccccc1)NC(C)=O)C(N)=O | 5.44 |  | 5.26 |  |
| CCC[C@H](NC(=O)[C@H](CCCCNC(C)=S)NC(=O)[C@H](CCCCNC(C)=O)NC(C)=O)C(N)=O | 5.55 |  | 5.86 |  |
| CCC[C@H](NC(C)=O)C(=O)N[C@@H](CCCCNC(C)=S)C(=O)N[C@@H](CCCCNC(C)=O)C(N)=O | 4.97 | 5.68 | 5.11 |  |
| CC(=O)NCCCC[C@H](NC(C)=O)C(=O)N[C@@H](CCCCNC(C)=S)C(=O)N[C@@H](CCc1ccccc1)C(N)=O | 5.84 |  | 6.19 |  |
| CC(=O)NC[C@H](NC(=O)[C@H](CCCCNC(C)=S)NC(=O)[C@H](Cc1ccc2ccccc2c1)NC(C)=O)C(N)=O |  |  |  | pIC50 [6]: 5.72; Ratio IC50 (Homo sapiens [4]): 9.9; Ratio IC50 (Homo sapiens [5]): 9.3; pIC50 [7]: 4.75; pIC50 [8]: 2.70; pIC50 [9]: 3.51; pIC50 [10]: 4.72 |
| CCCC[C@H](NC(C)=O)C(=O)N[C@@H](CCCCNC(C)=S)C(=O)N[C@@H](CCCCNC(C)=O)C(N)=O | 5.56 |  | 6.09 |  |
| CC(=O)NCCCC[C@H](NC(=O)[C@H](CCCCNC(C)=S)NC(=O)[C@H](Cc1csc2ccccc12)NC(C)=O)C(N)=O |  |  |  | pIC50 [6]: 5.84; pIC50 [7]: 4.84; pIC50 [10]: 4.84 |
| CC(=O)NCCCC[C@H](NC(=O)[C@H](CCCCNC(C)=S)NC(=O)[C@H](Cc1ccc2ccccc2c1)NC(C)=O)C(N)=O |  |  |  | pIC50 [6]: 5.89; pIC50 [7]: 4.92; pIC50 [10]: 4.90 |

Second part, led by results:

| pIC50 [1] | pIC50 [2] | pIC50 [3] | Structure (SMILES) | further results |
| --- | --- | --- | --- | --- |
| 5.62 | 5.49 | 5.41 | CC(=O)NCCCC[C@H](NC(C)=O)C(=O)N[C@@H](CCCCNC(C)=S)C(=O)N[C@@H](Cc1ccc(-c2ccccc2)cc1)C(N)=O |  |
| 5.67 |  | 5.87 | CC[C@H](NC(C)=O)C(=O)N[C@@H](CCCCNC(C)=S)C(=O)N[C@@H](CCCCNC(C)=O)C(N)=O |  |
| 5.63 | 6.44 | 5.82 | CC(=O)NCCCC[C@H](NC(C)=O)C(=O)N[C@@H](CCCCNC(C)=S)C(=O)N[C@@H](CNC(C)=O)C(N)=O |  |
| 5.18 | 5.74 | 4.92 | CC(=O)NC[C@H](NC(=O)[C@H](CCCCNC(C)=S)NC(=O)[C@H](CNC(C)=O)NC(C)=O)C(N)=O | Ratio IC50 (Homo sapiens [4]): 3.7; Ratio IC50 (Homo sapiens [5]): 6.6 |
| 5.16 | 6.00 | 5.11 | CC(=O)NCCCC[C@H](NC(=O)[C@H](CCCCNC(C)=S)NC(=O)[C@H](CNC(C)=O)NC(C)=O)C(N)=O |  |
| 5.71 | 5.96 | 5.85 | CC[C@H](NC(=O)[C@H](CCCCNC(C)=S)NC(=O)[C@H](CCCCNC(C)=O)NC(C)=O)C(N)=O |  |
| 5.52 |  | 5.35 | CC(=O)NCCCC[C@H](NC(=O)[C@H](CCCCNC(C)=S)NC(=O)[C@H](Cc1ccc(-c2ccccc2)cc1)NC(C)=O)C(N)=O |  |
| 5.94 | 5.85 | 5.62 | CC(=O)NCCCC[C@H](NC(C)=O)C(=O)N[C@@H](CCCCNC(C)=S)C(=O)N[C@@H](Cc1csc2ccccc12)C(N)=O |  |
| 5.18 | 5.79 | 5.08 | CC(=O)NC[C@H](NC(=O)[C@H](CCCCNC(C)=S)NC(=O)[C@H](Cc1ccc(-c2ccccc2)cc1)NC(C)=O)C(N)=O | Ratio IC50 (Homo sapiens [4]): 4.1; Ratio IC50 (Homo sapiens [5]): 5.1 |
| 5.02 | 5.76 | 5.06 | CC(=O)NC[C@H](NC(=O)[C@H](CCCCNC(C)=S)NC(=O)[C@H](Cc1csc2ccccc12)NC(C)=O)C(N)=O | Ratio IC50 (Homo sapiens [4]): 5.5; Ratio IC50 (Homo sapiens [5]): 5 |
| 6.19 | 5.68 | 5.65 | CC(=O)NCCCC[C@H](NC(C)=O)C(=O)N[C@@H](CCCCNC(C)=S)C(=O)N[C@@H](Cc1ccc2ccccc2c1)C(N)=O |  |
